pKd: −log10 of the molar value. *1 amine or outer side, *2 acyl side, *3 side chain or, on linkers, in order; H or OH if unused. Where a SMILES comes first, the peptide text is derived from it. Bridges are numbered along the chain shown (N, C = ends). [ ]: non-standard residue; d: D form. The star is where a group is joined. ξ: configuration not given here. X2 = CC(C)C(NC(=O)CCN1C(=O)C=CC1=O)C(=O)N[C@@H](C)C(=O)Nc1ccc(CN*)cc1; ξTrp(2-yl) = O=C(C(Cc1c([*:3])[nH]c2ccccc12)N[*:1])[*:2]; Ile(4R-OH,5-OH) = C[C@H]([C@H](N)C(=O)O)[C@@H](O)CO; X3 = CC([C@H](N[*:1])C(=O)[*:2])[C@@H](O)CO; X1 = O=C([C@@H]1CC(O)CN1[*:1])[*:2]; ξD = NC(CC(=O)O)C(=O)O; ξC = NC(CS)C(=O)O

A short description of series [1]: reactivity with cysteine in PBS buffer, RP-HPLC C18. It counts as physicochemical. As to conditions: 1 mg/mL compound, 10 mg/mL cysteine in PBS, pH 7.4 at 37° C. after 24 h, 48 h and 6 d. How it is done: 1 mg/ml α-amanitin 10 mg/mL cysteine in PBS, pH 7.4 at 37° C. after 24 h, 48 h and 6 d RP-HPLC C18.
1 mg/mL β-amanitin 10 mg/mL cysteine in PBS, pH 7.4 at 37° C. after 24 h, 48 h and 6 d RP-HPLC […].
1 mg/mL amanin 10 mg/mL cysteine in PBS, pH 7.4 at 37° C. after 24 h, 48 h and 6 d RP-HPLC […].
1 mg/mL HDP 30.2105, 10 mg/mL cysteine in PBS, pH 7.4 at 37° C. after 24 h, 48 h and 6 d RP-HPLC C18; * impurity.

For the next series, the system named is SKBR-3 cells. Kind of series: cytotoxicity assay on SKBR-3 cells after plasma/PBS stressing of ADCs. Format: cell-based. As to conditions: conjugated to T-D265C, SKBR-3 cells 96 h. How it is done: Test items were incubated in human plasma at 37° C. for 0 an 4 days. Cytotoxicity assay were performed on SKBR-3 cells for 96 h.
Test items were incubated in mouse plasma at 37° C. for 0 an 4 days. Cytotoxicity assay were performed on SKBR-3 cells for 96 h.
Test items were incubated in PBS at 37° C. for 0 an 4 days. Cytotoxicity assay were performed on SKBR-3 cells for 96 h. All ADCs show adequate stability to non-enzymatic environment.

Series [2] in a line: Western-Blot analysis of T-D265C conjugates after incubation in human plasma, mouse plasma and PBS. As to conditions: conjugated to T-D265C antibody; 37° C. in human plasma, mouse plasma and PBS for 0, 4 and 10 days. It counts as in vitro ADME. How it is done: Western-Blot analysis of amatoxin derivatives HOP 30.1699, HDP 30.2060 and HDP 30.2115 conjugated to T-D265C antibody after incubation at 37° C. in human plasma, mouse plasma an phosphate buffered saline (PBS) for 0, 4 and 10 days. Detection was done with a polyclonal anti-amanitin antibody from rabbit and an anti-rabbit antibody conjugated to horseradish peroxidase.

For the next series, the target named is RNA-polymerase II (Homo sapiens, UniProt P24928). As to conditions: complex between amanitin and RNA-polymerase II; cited from earlier work.

For `CC[C@H](C)[C@@H]1NC(=O)CNC(=O)C2Cc3c([nH]c4ccccc34)SCC(NC(=O)CNC1=O)C(=O)NC(CC(=O)O)C(=O)N1CC(O)C[C@H]1C(=O)N[C@@H](C(C)[C@@H](O)CO)C(=O)N2` (some centres unmarked) [HDP 30.2105] (cyclo(GIG[ξC][ξD][X1][X3][ξTrp(2-yl)]); thioether 4-8), the reactivity with cysteine result in series [1] is “complete absence of reactivity”.

For `CC[C@H](C)[C@@H]1NC(=O)CNC(=O)C2Cc3c([nH]c4ccccc34)SCC(NC(=O)CNC1=O)C(=O)N[C@@H](CC(=O)NCc1ccc(NC(=O)[C@H](C)NC(=O)C(NC(=O)CCN3C(=O)C=CC3=O)C(C)C)cc1)C(=O)N1CC(O)C[C@H]1C(=O)N[C@@H]([C@@H](C)[C@@H](O)CO)C(=O)N2` (stereo partly drawn) [HDP 30.2115] (cyclo(D(X2)[X1][Ile(4R-OH,5-OH)][ξTrp(2-yl)]GIG[ξC]); thioether 4-8), the “cytotoxicity after plasma stressing” value in the series on SKBR-3 cells (human plasma at 37° C. for 0 and 4 days) is “still picomolar activity”; with SKBR-3 cells (mouse plasma at 37° C. for 0 and 4 days) it was “remains almost unchanged”. Also, the “cross-links and loss of the amatoxin moiety (stability)” value in series [2] was “high stability and significantly reduced cross-links”.

Take amanin: the reactivity with cysteine entry in series [1] is “reduced reactivity”.

For amanitin, at RNA-polymerase II, the negative logarithm of the Kd (pKd) is 8.52.

Take α-Amanitin: in series [1], the reactivity with cysteine result is “strong reactivity”.

As to β-Amanitin, the reactivity with cysteine entry in series [1] is “strong reactivity”.
